From patent publication US8709745B2, “Methods for isolating ligands of the human bitter taste receptor TAS2R49” (Deutsches Institut für Ernährungsforschung Potsdam-Rehbrücke, priority 2009, dated 2014)
“Also recorded” adds a separate entry of the source. Structures can show the parent of a compound that is named as a salt.

Assays:
[1] = target: T1, TAS2R49 human bitter taste receptor (Homo sapiens, UniProt P59543, K79E); test: FLIPR calcium assay in HEK-293T Gα16gust44 cells transiently transfected with SST-hTAS2R49-HSV; assay type: cell-based; conditions: for activation of hTAS2R49 (calcium response): hTAS2R49 transfected vs mock transfected cells
T1 construct: first 45 amino acids of rat somatostatin receptor type 3 (SST), membrane-targeting signal (N); expressed in transfected cells; host or cells: HEK-293T cells stably expressing the chimeric G-protein alpha subunit Gα16gust44; vector pcDNA5/FRT
T1 sequence (P59543 1-309 K79E): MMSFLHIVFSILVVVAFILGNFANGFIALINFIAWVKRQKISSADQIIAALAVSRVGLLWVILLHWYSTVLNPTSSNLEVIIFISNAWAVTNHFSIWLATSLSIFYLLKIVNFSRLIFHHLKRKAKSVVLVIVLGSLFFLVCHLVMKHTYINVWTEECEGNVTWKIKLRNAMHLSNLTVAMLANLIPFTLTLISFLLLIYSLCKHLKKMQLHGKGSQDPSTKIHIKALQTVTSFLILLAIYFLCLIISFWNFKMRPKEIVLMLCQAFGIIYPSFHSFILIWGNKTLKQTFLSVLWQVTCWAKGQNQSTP
Text: The TAS2R49 human bitter taste receptor was functional expressed in a heterologouse cell system. Therefore, the coding region for this hTAS2R was cloned into a vector (pcDNA5/FRT, Invitrogen, San Diego, Calif.). The construct includes the sequence for the first 45 amino acids of a rat somatostatin receptor type 3 (SST) coupled to the N-terminal end of the receptor for an improvement of receptor membrane targeting. At the C-terminus of the bitter taste receptor a herpes simplex virus glycoprotein D (HSV) epitope was added for immunocytochemical detection. The SST-hTAS2R49-HSV pcDNA5/FRT plasmid construct was transiently transfected into HEK-293T cells stably expressing the chimeric G-protein a subunit Gal6gust44. An empty pcDNA5/FRT plasmid /vector were used as negative control. The cells were seeded into 96-well plates (Greiner Bio-One, Frickenhausen, Germany) under conventional cell culture conditions (Dulbecco's Modified Eagle Medium (DMEM)/10% FCS/1% penicillin/streptomycin; 37° C., 5% CO2, 95% humidity) and 24-26 h later transfected with 150 ng plasmid DNA and 300 ng Lipofectamine 2000 (Invitrogen, San Diego, Calif.). 24-26 h later the cells were loaded with the calcium sensitive dye Fluo4-acetoxymethyl (Molecular Probes, Karlsruhe, Germany) with a final concentration of 20 μM in serum-free DMEM medium. The organic anion-transport inhibitor probenecid (Sigma Aldrich, München, Germany) was added to the dye/medium solution to reduce leakage of the indicator after cleavage of the ester bonds. 1 h after loading, the well plates were washed 3 times with 30 min incubation between the last second wash steps (protected from light) by Denley cell washer (Thermo Fisher Scientific Inc., Waltham, Mass.). The washing solution contains 130 mM NaCl, 5 mM KCl, 10 mM HEPES with pH 7.4, 2 mM CaCl2, and 10 mM Glucose. The agonist was solved and diluted in wash solution.
The elevation of the cytosolic calcium concentration was measured after application of the test substances using the Fluorometric Imaging Plate Reader (FLIPR, Molecular Devices, Munich, Germany) at […]. The vitality of the cells was verified by a second application of 100 nM somatostatin-14, an agonist of the endogenous […] somatostatin receptor type 2. To exclude unspecific responses and false positive signals, mock transfected cells were always measured on the same plate with the same compound concentration each. All experiments were performed at least twice. For the calculation of the dose-response function, the signals of the wells with the same concentration of the agonist were automatically normalized with the control wells (mock transfection, Fmock) by FLIPR384® software (Molecular Devices, Munich, Germany). To consider the dye loading efficiency and the cell number the background fluorescence was measured for each plate/each well and denoted as signal test. […] The calculation of the EC50 values were prepared in SigmaPlot 9.0 by nonlinear regression to the function f(x)=100/[1+(EC50/x)nH], where x is the agonist concentration and nH is the Hill coefficient.

[2] = vendor property list; cited from earlier work
[3] = averaged dose response curve (n=5), FIG. 1

activation of hTAS2R49 (calcium response) ([1]; listed as Diphenidol)	EC50 [1, 3]	threshold [1, 3]	SMILES	activation of hTAS2R49 (calcium response) [1]	water solubility [2]
agonist for hTAS2R49	–	–	OC(CCCN1CCCCC1)(c1ccccc1)c1ccccc1 [diphenidol]	activated the receptor	–
–	–	–	O=C(O)c1cc(=O)c2c(OCC(O)COc3cccc4oc(C(=O)O)cc(=O)c34)cccc2o1 [Cromolyn sodium, disodium salt of 5,5′-[(2-hydroxytrimethylene)dioxy]bis[4-oxo-4H-1-benzopyran-2-carboxylate]]	–	water-soluble
–	42 ± 13 µM	~0.01 mM	O=C(O)c1cc(=O)c2c(OCC(O)COc3cccc4oc(C(=O)O)cc(=O)c34)cccc2o1 [cromolyn]	responded robustly; also recorded: effective agonist of hTAS2R49	–
